Measurements: PMC8308672, “Bioactive Compounds from Euphorbia usambarica Pax. with HIV-1 Latency Reversal Activity” (Pharmaceuticals, 2021)

Columns and labels:
latent HIV-1 = assay: HIV-1 latency reversal activity, GFP expression of J-Lat 10.6 cells; format: cell-based; conditions: for HIV-1 latency reversal activity of isolated compounds (in words): J-lat 10.6 cells, GFP expression, tested at 1, 10 and 100 μM; for EC50: Human immunodeficiency virus 1, J-Lat 10.6, read-out: latency EC50, J-Lat 10.6 cells, HIV-1 reactivation dose-response
Method: (§1) Figure 1 HIV-1 latency reversal activity of methanolic crude extract (EU), partitioned n-hexane (EU-H), dichloromethane (EU-C), ethyl acetate (EU-E), and water-soluble residue (EU-W) phases. (A) dose-response experiments conducted with Jurkat T cells that were latently infected with full-length HIV-1 reporter construct (J-Lat 10.6 cells), HIV-1 reactivation quantified as % of positive control (PMA); (B) cell viability of each sample at 10, 50, 100, 500, and 1000 μg/mL.
(§2) Jurkat cells with a full-length integrated HIV-1 provirus that have been modified to contain a GFP coding region in place of the env gene (J-lat 10.6 cells) were used for HIV-1 anti-latency activity, cytotoxicity, and cellular activation testing. All 31 compounds were tested at 1, 10, and 100 μM. […] These compounds were further tested at additional concentrations to determine dose response and toxicity curves (Figure 5A–F). Cell viability for all isolated compounds is presented in Figure S106 in the supplementary material.
The HIV-1-infected Jurkat T cell line (J-Lat 10.6) was obtained in January 2019 from the NIH/ATCC HIV-1 Reagent Program (www.hivreagentprogram.org) and cultured in RPMI-based media supplemented with 10% fetal calf serum, 1% penicillin, and 1% streptomycin.
(§3) After in vitro culture, J-lat cells were washed with phosphate-buffered saline (1× PBS) prior to staining with 0.1 µL fixable viability dye Live/Dead Aqua (Cat L34957, www.thermofisher.com) per 10^5 cells for 30 min at 4 °C. Simultaneously, J-lat cells were also stained with antibodies against CD69 conjugated to an APC fluorophore (APC anti-human CD69 antibody, biolegend.com). Cells were then washed and re-suspended in 1× PBS prior to flow cytometry acquisition evaluating for cellular viability, green fluorescent protein (GFP) expression, and CD69 expression. Flow cytometry was performed with a BD FACSCelesta or FACSCanoto flow cytometer with FACSDiva acquisition software (Becton Dickinson, Mountain View, CA) prior to analysis with FlowJo (TreeStar Inc., Ashland, OR, USA).
Isolated compounds were resuspended in dimethyl sulfoxide (DMSO; Sigma-Aldrich, Burlington, USA), at a concentration of 10 mM, and diluted with PBS, and tested with J-lat 10.6 cells at concentrations of 100, 10, and 1 μM. J-lat 10.6 cells were tested with compounds at a concentration of 2.5 × 10^5 cells/mL. We performed a minimum of three replicates of each condition for all experiments. Negative controls contained 1% DMSO to account for any effect of DMSO in the highest dilution of compounds.

PKC = assay: Latency reversal activity in the presence and absence of pan-PKC inhibitor Gö6983; format: cell-based, human; conditions: presence versus absence of pan-PKC inhibitor Gö6983
From the text: (§4) In order to determine whether our active compounds were acting through PKC, we evaluated the latency reversal activity of each of these compounds in the presence and absence of a pan-PKC inhibitor, Gö6983 (Figure 7).
Figure 7 Effect of PKC inhibition on HIV-1 reactivation of compounds 13–14, 21, 26, and 27.

CD69 = CD69 expression on J-lat cells (flow cytometry); format: cell-based, human
Method: as §4, §3

latent HIV = test system: latent HIV; design: method as in PMID 30031972; conditions: read-out: EC50, reactivation of latent HIV; cited from earlier work
in vitro = format: cell-based, human; conditions: human, J-Lat 10.6 cells; read-out: cellular CC50
Method: as §1, §2, §3
(§5) Isolated compounds were resuspended in dimethyl sulfoxide (DMSO; Sigma-Aldrich, Burlington, USA), at a concentration of 10 mM, and diluted with PBS, and tested with J-lat 10.6 cells at concentrations of 100, 10, and 1 μM. J-lat 10.6 cells were tested with compounds at a concentration of 2.5 × 10^5 cells/mL. […]

J-Lat 10.6 cells = assay: in vitro; format: cell-based, human; conditions: read-out: cellular CC50
Method: as §1, §2, §3, §5

HIV-1 = conditions: read-out: EC50, anti-HIV-1 activity; cited from earlier work
HIV-1 latency = test system: HIV-1 latency; design: method as in PMID 30944245; conditions: through the PKC pathway; cited from earlier work

COc1cc(C2OCC3C(c4cc(OC)c(O)c(OC)c4)OCC23)cc(OC)c1O (single isomer, unassigned; (+)) [Compound 26, (+)-syringaresinol]
HIV-1 latency reversal activity of isolated compounds (in words) (latent HIV-1): showed HIV-1 latency reversal activity | latency reversal activity when PKC was inhibited (in words) (PKC): did not show a significant reduction | CD69 expression (hallmark of PKC activation) (in words) (CD69): did not increase CD69 expression

CC1=C[C@]23C(=O)[C@@H](C=C(CO)[C@@H](O)[C@]2(O)[C@H]1OC(=O)c1ccc2ccccc2c1)[C@H]1[C@@H](C[C@H]3C)C1(C)C [3-(2-naphthoyl)ingenol]
EC50 (latent HIV): 0.0024 µM

C/C=C(/C)C(=O)O[C@H]1C(C)=C[C@]23C(=O)[C@@H](C=C(CO)[C@@H](O)[C@]12O)[C@H]1[C@@H](C[C@H]3C)C1(C)C [3-angeloylingenol]
EC50 (latent HIV): 0.0042 µM

CC(=O)O[C@@]12[C@H](OC(=O)c3ccccc3)[C@@H](C)[C@]3(O)[C@@H]4C=C(C)C(=O)C4=CC(C)=C[C@H]3[C@@H]1C2(C)C [Compound 12, 12-O-benzoyl-13-acetoxy-4,20-dideoxyphorbol-4-ene]
HIV-1 latency reversal activity of isolated compounds (in words) (latent HIV-1): showed HIV-1 latency reversal activity | latency reversal activity when PKC was inhibited (in words) (PKC): reduced efficacy

CC(=O)O[C@@]12[C@H](OC(=O)c3ccccc3)[C@@H](C)[C@]3(O)[C@@H]4C=C(C)C(=O)[C@@H]4CC(CO)=C[C@H]3[C@@H]1C2(C)C [Compound 13, crotignoid K]
EC50 (latent HIV-1): 3.75 µM | HIV-1 latency reversal activity of isolated compounds (in words) (latent HIV-1): showed HIV-1 latency reversal activity | latency reversal activity when PKC was inhibited (in words) (PKC): reduced efficacy | CC50 at 24 h (in vitro): 40 µM

CC(=O)O[C@@]12[C@H](OC(=O)c3ccccc3)[C@@H](C)[C@]3(O)[C@@H]4C=C(C)C(=O)[C@H]4CC(CO)=C[C@H]3[C@@H]1C2(C)C [Compound 14, 4β-Crotignoid K]
EC50 (latent HIV-1): 0.015 µM | fold difference in selectivity index (CC50/EC50), 14 versus 13 (latent HIV-1; J-Lat 10.6 cells, compared to crotignoid K (13)): ~ 1000 fold | HIV-1 latency reversal activity of isolated compounds (in words) (latent HIV-1): showed HIV-1 latency reversal activity | latency reversal activity when PKC was inhibited (in words) (PKC): reduced efficacy | CC50 (J-Lat 10.6 cells): > 160 µM | CC50 at 24 h (in vitro): 160 µM

CC1=C2C=C3CC[C@@H]4C(C)(C)C(=O)CC[C@@]4(C)[C@@H]3C[C@H]2OC1=O [Compound 21, helioscopinolide E]
HIV-1 latency reversal activity of isolated compounds (in words) (latent HIV-1): showed HIV-1 latency reversal activity | latency reversal activity when PKC was inhibited (in words) (PKC): reduced efficacy

COc1cc([C@H]2Oc3c(OC)cc(/C=C/COC(C)=O)cc3[C@@H]2COC(C)=O)ccc1O [Compound 27, dimeric coniferyl acetate]
HIV-1 latency reversal activity of isolated compounds (in words) (latent HIV-1): showed HIV-1 latency reversal activity | latency reversal activity when PKC was inhibited (in words) (PKC): did not show a significant reduction | CD69 expression (hallmark of PKC activation) (in words) (CD69): did not increase CD69 expression

CC1(C)OC[C@@]2(C[C@]34CC[C@H]2C[C@H]3[C@]2(C)CC[C@H](O)C(C)(C)[C@H]2CC4)O1 [euphorneroid D]
EC50 (HIV-1): 34 µM

CC1=C[C@]23C(=O)[C@@H](C=C(CO)[C@@H](O)[C@]2(O)[C@H]1O)[C@H]1[C@@H](C[C@H]3C)C1(C)C [ingenol]
reactivation of HIV-1 latency (in words) (HIV-1 latency): significant effect in the reactivation of HIV-1 latency

ent-3-oxoatisan-16α,17-acetonide
EC50 (HIV-1): 24 µM
